Source: patent US20230002367A1, “BIFUNCTIONAL COMPOUNDS” (Hoffmann-La Roche Inc., priority 2019, published 2023)
Read-outs that look alike come from different tables or passages of the source.

Target: T1, SMARCA2 (Homo sapiens, UniProt P51531)
T1 construct: endogenous in cells
Experiment: SMARCA2 HiBiT degradation assay (cellular)
Type: cell-based
Conditions: for DC50: read-out: HiBit A549 SMARCA2 IP

[1] = A549, Emax = amount of residual protein remaining in the cell following compound treatment
[2] = SMARCA2 HiBiT cells, luminescence readout, 11-point titration from 10 μM, 6 hours or 16 hours
[3] = A549, different HIBIT SMARCA2 clone (footnote a), residual protein remaining
[4] = different HIBIT SMARCA2 clone (footnote a)

T1 sequence (P51531 whole entry): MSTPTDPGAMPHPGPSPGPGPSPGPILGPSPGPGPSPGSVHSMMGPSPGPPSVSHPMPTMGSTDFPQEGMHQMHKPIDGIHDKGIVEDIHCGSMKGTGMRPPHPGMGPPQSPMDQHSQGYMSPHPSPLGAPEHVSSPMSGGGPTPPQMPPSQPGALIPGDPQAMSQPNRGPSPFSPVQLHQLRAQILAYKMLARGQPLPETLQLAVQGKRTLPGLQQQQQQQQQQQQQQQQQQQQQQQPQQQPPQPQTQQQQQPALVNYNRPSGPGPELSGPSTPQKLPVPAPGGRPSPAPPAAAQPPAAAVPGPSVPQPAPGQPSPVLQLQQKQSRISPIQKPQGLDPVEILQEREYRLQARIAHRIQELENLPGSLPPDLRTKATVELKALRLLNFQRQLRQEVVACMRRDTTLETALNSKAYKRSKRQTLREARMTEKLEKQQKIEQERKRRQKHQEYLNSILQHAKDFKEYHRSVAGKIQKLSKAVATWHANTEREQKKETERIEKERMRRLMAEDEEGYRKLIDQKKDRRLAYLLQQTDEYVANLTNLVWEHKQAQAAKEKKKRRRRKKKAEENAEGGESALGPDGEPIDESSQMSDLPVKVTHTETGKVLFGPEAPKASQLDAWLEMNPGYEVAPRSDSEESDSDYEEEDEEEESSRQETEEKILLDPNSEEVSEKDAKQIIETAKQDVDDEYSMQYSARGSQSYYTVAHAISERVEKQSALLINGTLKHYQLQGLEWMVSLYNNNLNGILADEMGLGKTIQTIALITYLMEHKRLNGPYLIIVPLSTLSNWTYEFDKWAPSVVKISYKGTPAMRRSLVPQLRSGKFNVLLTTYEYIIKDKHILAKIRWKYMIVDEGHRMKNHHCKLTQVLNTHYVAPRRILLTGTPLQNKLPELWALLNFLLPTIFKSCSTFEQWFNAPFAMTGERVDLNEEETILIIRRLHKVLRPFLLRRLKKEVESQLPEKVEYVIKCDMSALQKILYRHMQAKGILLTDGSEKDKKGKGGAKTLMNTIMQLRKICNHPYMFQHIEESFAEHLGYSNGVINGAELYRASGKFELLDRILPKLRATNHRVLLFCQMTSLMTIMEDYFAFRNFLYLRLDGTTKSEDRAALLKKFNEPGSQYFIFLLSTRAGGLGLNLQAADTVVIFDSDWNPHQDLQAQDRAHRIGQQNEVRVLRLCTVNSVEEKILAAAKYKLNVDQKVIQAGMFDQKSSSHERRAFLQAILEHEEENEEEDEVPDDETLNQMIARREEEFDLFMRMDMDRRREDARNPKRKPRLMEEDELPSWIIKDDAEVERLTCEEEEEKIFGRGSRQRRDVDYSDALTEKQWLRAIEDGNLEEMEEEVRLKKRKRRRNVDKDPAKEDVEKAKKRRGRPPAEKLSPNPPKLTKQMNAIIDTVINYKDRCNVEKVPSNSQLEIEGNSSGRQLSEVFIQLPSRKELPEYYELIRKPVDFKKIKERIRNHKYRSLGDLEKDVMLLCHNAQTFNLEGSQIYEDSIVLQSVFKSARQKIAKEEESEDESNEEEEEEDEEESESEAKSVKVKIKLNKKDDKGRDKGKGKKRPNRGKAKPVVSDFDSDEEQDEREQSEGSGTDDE

With `Cc1ncsc1-c1ccc([C@H](C)NC(=O)[C@@H]2C[C@@H](O)CN2C(=O)[C@@H](NC(=O)CCCCCCCCC(=O)N2CCN(Cc3cccc(C(C)Oc4cc(-c5ccccc5O)nnc4N)c3)CC2)C(C)(C)C)cc1` (mixture of isomers) [Example 82, rac-(2S,4R)-4-hydroxy-1-[rac-(2S)-2-[[10-[4-[[3-[l-[3-amino-6-(2-hydroxyphenyl)pyridazin-4-yl]oxyethyl]phenyl]methyl]piperazin-1-yl]-10-oxo-decanoyl]amino]-3,3-dimethyl-butanoyl]-N-[rac-(1S)-1-[4-(4-methylthiazol-5-yl)phenyl]ethyl]pyrrolidine-2-carboxamide] the Emax [1] was 62% and the DC50 [2] was 586 nM.
`Cc1ncsc1-c1ccc([C@H](C)NC(=O)[C@@H]2C[C@@H](O)CN2C(=O)[C@@H](NC(=O)CCCCCCCCCNC(=O)C(c2ccccc2)n2cc(-c3cc(-c4ccccc4O)nnc3N)cn2)C(C)(C)C)cc1` (mixture of isomers) [Example 88, rac-(2S,4R)-4-hydroxy-1-[rac-(2S)-2-[10-[[2-[4-[3-amino-6-(2-hydroxyphenyl)pyridazin-4-yl]pyrazol-1-yl]-2-phenyl-acetyl]amino]decanoylamino]-3,3-dimethyl-butanoyl]-N-[rac-(1S)-1-[4-(4-methylthiazol-5-yl)phenyl]ethyl]pyrrolidine-2-carboxamide] gave an Emax [1] of 29% and a DC50 [2] of 423 nM.
Compound `Cc1ncsc1-c1ccc([C@H](C)NC(=O)[C@@H]2C[C@@H](O)CN2C(=O)[C@@H](NC(=O)CCCCCC(=O)N2CCN(c3cccc(N4CCCC(Oc5cc(-c6ccccc6O)nnc5N)C4)c3)CC2)C(C)(C)C)cc1` (mixture of isomers) [Example 90, rac-(2S,4R)-4-hydroxy-1-[rac-(2S)-2-[[7-[4-[3-[3-[3-amino-6-(2-hydroxyphenyl)pyridazin-4-yl]oxy-1-piperidyl]phenyl]piperazin-1-yl]-7-oxo-heptanoyl]amino]-3,3-dimethyl-butanoyl]-N-[rac-(1S)-1-[4-(4-methylthiazol-5-yl)phenyl]ethyl]pyrrolidine-2-carboxamide] has an Emax [1] of 34% and a DC50 [2] of 1320 nM.
`Cc1ncsc1-c1ccc([C@H](C)NC(=O)[C@@H]2C[C@@H](O)CN2C(=O)[C@@H](NC(=O)CCCCCCCCC(=O)N2CCN(c3cccc(N4CCCC(Oc5cc(-c6ccccc6O)nnc5N)C4)c3)CC2)C(C)(C)C)cc1` (mixture of isomers) [Example 91, rac-(2S,4R)-4-hydroxy-1-[rac-(2S)-2-[[10-[4-[3-[3-[3-amino-6-(2-hydroxyphenyl)pyridazin-4-yl]oxy-1-piperidyl]phenyl]piperazin-1-yl]-10-oxo-decanoyl]amino]-3,3-dimethyl-butanoyl]-N-[rac-(1S)-1-[4-(4-methylthiazol-5-yl)phenyl]ethyl]pyrrolidine-2-carboxamide] was tested, and the Emax [1] was 44% and the DC50 [2] was 600 nM.
In the case of `Cc1ncsc1-c1ccc([C@H](C)NC(=O)[C@@H]2C[C@@H](O)CN2C(=O)[C@@H](NC(=O)CCCCCCCCCCC(=O)N2CCN(c3cccc(N4CCCC(Oc5cc(-c6ccccc6O)nnc5N)C4)c3)CC2)C(C)(C)C)cc1` (mixture of isomers) [Example 92, rac-(2S,4R)-4-hydroxy-1-[rac-(2S)-2-[[12-[4-[3-[3-[3-amino-6-(2-hydroxyphenyl)pyridazin-4-yl]oxy-1-piperidyl]phenyl]piperazin-1-yl]-12-oxo-dodecanoyl]amino]-3,3-dimethyl-butanoyl]-N-[rac-(1S)-1-[4-(4-methylthiazol-5-yl)phenyl]ethyl]pyrrolidine-2-carboxamide], the Emax [1] is reported as 45% and the DC50 [2] is reported as 560 nM.
Compound `Cc1ncsc1-c1ccc([C@H](C)NC(=O)[C@@H]2C[C@@H](O)CN2C(=O)[C@@H](NC(=O)CCCCCCCCCCCCC(=O)N2CCN(c3cccc(N4CCCC(Oc5cc(-c6ccccc6O)nnc5N)C4)c3)CC2)C(C)(C)C)cc1` (mixture of isomers) [Example 93, rac-(2S,4R)-4-hydroxy-1-[rac-(2S)-2-[[14-[4-[3-[3-[3-amino-6-(2-hydroxyphenyl)pyridazin-4-yl]oxy-1-piperidyl]phenyl]piperazin-1-yl]-14-oxo-tetradecanoyl]amino]-3,3-dimethyl-butanoyl]-N-[rac-(1S)-1-[4-(4-methylthiazol-5-yl)phenyl]ethyl]pyrrolidine-2-carboxamide] has an Emax [1] of 55% and a DC50 [2] of 579 nM.
Compound `Cc1ncsc1-c1ccc(CNC(=O)[C@@H]2C[C@@H](O)CN2C(=O)[C@@H](NC(=O)CCCCCCCCC(=O)N2CCC(CNC(=O)C3CN(c4cc(-c5ccccc5O)nnc4N)CCN3c3ccccc3)CC2)C(C)(C)C)cc1` (mixture of isomers) [Example 97, 4-[3-amino-6-(2-hydroxyphenyl)pyridazin-4-yl]-N-[[1-[10-oxo-10-[[rac-(1S)-2,2-dimethyl-1-[rac-(2S,4R)-4-hydroxy-2-[[4-(4-methylthiazol-5-yl)phenyl]methylcarbamoyl]pyrrolidine-1-carbonyl]propyl]amino]decanoyl]-4-piperidyl]methyl]-1-phenyl-piperazine-2-carboxamide] has an Emax [1] of 40% and a DC50 [2] of 1150 nM.
`Cc1ncsc1-c1ccc(CNC(=O)[C@@H]2C[C@@H](O)CN2C(=O)[C@@H](NC(=O)CCCCCCCCC(=O)N(C)CCNC(=O)C2CN(c3cc(-c4ccccc4O)nnc3N)CCN2c2ccccc2)C(C)(C)C)cc1` (mixture of isomers) [Example 98, N′-[2-[[4-[3-amino-6-(2-hydroxyphenyl)pyridazin-4-yl]-1-phenyl-piperazine-2-carbonyl]amino]ethyl]-N′-methyl-N-[rac-(1S)-2,2-dimethyl-1-[rac-(2S,4R)-4-hydroxy-2-[[4-(4-methylthiazol-5-yl)phenyl]methylcarbamoyl]pyrrolidine-1-carbonyl]propyl]decanediamide] was tested, and the Emax [1] was 28% and the DC50 [2] was 1650 nM.
For `Cc1ncsc1-c1ccc(CNC(=O)[C@@H]2C[C@@H](O)CN2C(=O)[C@@H](NC(=O)CCCCCCCCC(=O)N2CCN(c3ccc(N4CCCC(Oc5cc(-c6cc(F)ccc6O)nnc5N)C4)cc3)CC2)C(C)(C)C)cc1` (mixture of isomers) [Example 108, rac-(2S,4R)-4-hydroxy-N-[[4-(4-methylthiazol-5-yl)phenyl]methyl]-1-[rac-(2S)-2-[[10-[4-[4-[3-[3-amino-6-(5-fluoro-2-hydroxy-phenyl)pyridazin-4-yl]oxy-1-piperidyl]phenyl]piperazin-1-yl]-10-oxo-decanoyl]amino]-3,3-dimethyl-butanoyl]pyrrolidine-2-carboxamide], the Emax [3] was 7.9% and the DC50 [4] was 68 nM.
In the case of `Cc1ncsc1-c1ccc(CNC(=O)[C@@H]2C[C@@H](O)CN2C(=O)[C@@H](NC(=O)CCCCCC(=O)N2CCN(c3ccc(N4CCCC(Oc5cc(-c6cc(F)ccc6O)nnc5N)C4)cc3)CC2)C(C)(C)C)cc1` (mixture of isomers) [Example 109, rac-(2S,4R)-4-hydroxy-N-[[4-(4-methylthiazol-5-yl)phenyl]methyl]-1-[rac-(2S)-2-[[7-[4-[4-[3-[3-amino-6-(5-fluoro-2-hydroxy-phenyl)pyridazin-4-yl]oxy-1-piperidyl]phenyl]piperazin-1-yl]-7-oxo-heptanoyl]amino]-3,3-dimethyl-butanoyl]pyrrolidine-2-carboxamide], the Emax [3] is reported as 23% and the DC50 [4] is reported as 285 nM.
For `Cc1ncsc1-c1ccc(CNC(=O)[C@@H]2C[C@@H](O)CN2C(=O)C(NC(=O)CCCCCCC(=O)N2CCC3(CC2)CCN(c2cc(-c4ccccc4O)nnc2N)CC3)C(C)(C)C)cc1` (stereo in doubt) [Example 6, (2S,4R)-1-[(2R)-2-[[8-[9-[3-amino-6-(2-hydroxyphenyl)pyridazin-4-yl]-3,9-diazaspiro[5.5]undecan-3-yl]-8-oxo-octanoyl]amino]-3,3-dimethyl-butanoyl]-4-hydroxy-N-[[4-(4-methylthiazol-5-yl)phenyl]methyl]pyrrolidine-2-carboxamide], the Emax [1] was 54% and the DC50 [2] was 2910 nM.
`Cc1ncsc1-c1ccc([C@@H](C)NC(=O)[C@H]2C[C@H](O)CN2C(=O)[C@H](NC(=O)CCOCCC(=O)N2CCN(c3ccc(N4CCCC(Oc5cc(-c6ccccc6O)nnc5N)C4)cc3)CC2)C(C)(C)C)cc1` (stereo in doubt) [Example 31, (2R,4S)-1-((2R)-2-(3-(3-(4-(4-(3-((3-amino-6-(2-hydroxyphenyl)pyridazin-4-yl)oxy)piperidin-1-yl)phenyl)piperazin-1-yl)-3-oxopropoxy)propanamido)-3,3-dimethylbutanoyl)-4-hydroxy-N-((R)-1-(4-(4-methylthiazol-5-yl)phenyl)ethyl)pyrrolidine-2-carboxamide] showed an Emax [1] of 30% and a DC50 [2] of 1920 nM.
`Cc1ncsc1-c1ccc(CNC(=O)[C@@H]2C[C@@H](O)CN2C(=O)[C@@H](NC(=O)CCCCCCCCC(=O)N2CCN(c3cc(-c4ccccc4O)nnc3N)CC2)C(C)(C)C)cc1` [Example 1, (2S,4R)-1-[(2S)-2-[[10-[4-[3-amino-6-(2-hydroxyphenyl)pyridazin-4-yl]piperazin-1-yl]-10-oxo-decanoyl]amino]-3,3-dimethyl-butanoyl]-4-hydroxy-N-[[4-(4-methylthiazol-5-yl)phenyl]methyl]pyrrolidine-2-carboxamide] gave an Emax [1] of 52% and a DC50 [2] of 2780 nM.
Work on `Cc1ncsc1-c1ccc(CNC(=O)[C@@H]2C[C@@H](O)CN2C(=O)[C@@H](NC(=O)CCCCCCCC(=O)N2CCN(CCOc3cccc(N4C5CCC4CN(c4cc(-c6ccccc6O)nnc4N)C5)c3)CC2)C(C)(C)C)cc1` [Example 2, (2S,4R)-1-[(2S)-2-[[9-[4-[2-[3-[3-[3-amino-6-(2-hydroxyphenyl)pyridazin-4-yl]-3,8-diazabicyclo[3.2.1]octan-8-yl]phenoxy]ethyl]piperazin-1-yl]-9-oxo-nonanoyl]amino]-3,3-dimethyl-butanoyl]-4-hydroxy-N-[[4-(4-methylthiazol-5-yl)phenyl]methyl]pyrrolidine-2-carboxamide] yielded an Emax [1] of 38% and a DC50 [2] of 478 nM.
